From a melting point compilation (Tetko et al.)

Row | SMILES | melting point [°C]
1 | N#CCN1C(=O)c2ccccc2S1(=O)=O | 142 to 143
2 | CC(=O)C=C(C)C | -53
3 | ClC[Si]12OCCN(CCO1)CCO2 | 221
4 | CCOc1ccc(N)c([N+](=O)[O-])c1 | 110 to 114
5 | CC(C)(C)C(=O)OCOC(=O)C1N2C(=O)C(N=CN3CCCCCC3)C2SC1(C)C (stereo not drawn) | 119
6 | Nc1ccc(C=Cc2nc3ccccc3[nH]2)cc1 | 225
7 | COc1ccc([P+]2([S-])Nn3c(nnc3C(F)(F)F)S2)cc1 (stereo not drawn) | 211
8 | COP(=O)(OC)c1ccccc1P(=O)(OC)OC | 81
9 | Cc1ccc2c(c1)C(=O)c1cc(C)ccc1C2=O | 163
10 | Cc1nn(C)c(NC(=O)CCl)c1Br | 151 to 153
11 | Cn1c(=O)c2[nH]c(Cl)nc2n(C)c1=O | 290
12 | Nc1ccc(Br)cc1C(=O)c1ccccc1F | 100 to 104
13 | Cc1cccc(C(=O)Cl)c1 | -23
14 | CCOc1ccc2c(C)cc(=O)oc2c1 | 115
15 | CC(=O)OC1CC2C3CC=C4CC(O)CCC4(C)C3CCC2(C)C1C(C)C1CCC(C)CN1 (stereo not drawn) | 210
16 | Cc1ccc(-c2csc(/C(C#N)=N\Nc3ccc(Cl)cc3Cl)n2)cc1 | 211
17 | ClCc1cc(-c2ccco2)on1 | 47 to 49
18 | CC(C)(C)Oc1ccc(O)cc1 | 152
19 | CC1CCC(C)(C(=O)CN2C(=O)c3ccccc3C2=O)C1(C)C (stereo not drawn) | 99
20 | O=C(O)c1c[nH]c2ccccc12 | 200 to 203
21 | O=[N+]([O-])c1ccc(CBr)cc1 | 99
22 | CCc1oc2ccccc2c1C(=O)c1ccc(O)cc1 | 124
23 | ClCc1csc2ccc(Br)cc12 | 106 to 108

Row | SMILES | melting point [°C]
24 | OC(O)C(Br)(Br)Br | 53.5
25 | Nc1cccc(-c2cncnc2)c1 | 163 to 166
26 | Brc1cnc(N2CCNCC2)nc1 | 77 to 79
27 | CC(=O)O[C@H]1CCCC2=CC(=O)CC[C@@]21C | 89 to 90
28 | Cn1c(=O)c(C2=NNC(=O)C2=CNc2nccs2)c(O)c2ccccc21 | 248
29 | COc1cccc(CC(C)=O)c1 | 258 to 260
30 | CCCC1C(=O)C2(C)CCC1C2(C)C (stereo not drawn) | 128
31 | C=C1C(C)C2C(Cc3ccccc3)NC(=O)C23OC(=O)CCC(O)CCCC(C)CC=CC3C1O (stereo not drawn) | 203 to 205
32 | CCOP(=S)(OCC)SCSC(C)(C)C | -29.2
33 | C[C@H]1NC(=O)O[C@H]1c1ccccc1 | 118 to 121
34 | CON(C(=O)c1cc(C)oc1C)C1CCCCC1 | 33
35 | Cc1nc(-c2ccc(-c3ccccc3)cc2)cs1 | 113 to 118
36 | COCCOCCOCCOC | -45
37 | Fc1c(F)c(F)c(I)c(I)c1F | 49 to 50
38 | Nc1ncnc2c1ncn2CCCNC(=O)c1cc([N+](=O)[O-])cc([N+](=O)[O-])c1 | 234
39 | Fc1c(F)c(Br)c(F)c(F)c1Br | 78 to 81
40 | CC(=O)CC(=O)CC(C)=O | 49
41 | Cc1cc(C)c(CC(=O)c2oc3ccccc3c2NC(=O)c2ccccc2)c(C)c1 | 198 to 199
42 | O=c1[nH]nc2ccccn12 | 234
43 | CCS(=O)(=O)c1nc2ccccn2c1S(=O)(=O)NC(=O)Nc1nc(OC)cc(OC)n1 | 202
44 | COC(=O)[C@]12c3ccccc3[C@]34c5ccccc5[C@H]1[C@@]32C(=O)O[C@@H]4C | 203
45 | O=C(O)C(O)C(Cl)(Cl)Cl (stereo not drawn) | 125
46 | COc1ccc(-c2cc3ccccc3cn2)cc1 | 98.5 to 100

Row | SMILES | melting point [°C]
47 | COC1=CC(c2ccccc2)c2ccccc21 (stereo not drawn) | 68
48 | C1CN2CCC1CC2 | 158
49 | ClCCCCCCCCCCCCCl | 29
50 | Cc1cc(F)ccc1O | 37 to 38
51 | OC(Cc1ccccc1)c1ccccc1 (stereo not drawn) | 67
52 | COC(=O)c1cc(O)c(O)c(O)c1 | 262
53 | CC12CCC(=O)CC1CCC1C2CCC2(C)C(O)(C(=O)CO)CCC12O (stereo not drawn) | 218
54 | N#Cc1cc(O)cc(O)c1 | 188
55 | CC(C)CC1=CC(=Cc2ccc(-c3ccc([N+](=O)[O-])cc3)o2)C(=O)O1 | 162 to 163
56 | N#CC(c1ccc(O)cc1)N1CCOCC1 (stereo not drawn) | 148 to 150
57 | O=[N+]([O-])c1c(Cl)c(Cl)cc(Cl)c1Cl | 100
58 | CSc1nn(CO)c(=S)s1 | 72 to 74
59 | COc1ccc(C(=O)c2cccc(C)c2)cc1C | 62.3
60 | NS(=O)(=O)c1c(Cl)nc2sccn12 | 176 to 177
61 | COC(=O)c1ccc(N(C)C)cc1 | 100
62 | Cc1ccc(-c2nnc(-c3ccccc3)c3c(C)onc23)cc1 | 206
63 | CCSC(SCC)=C1CCCC(=C(SCC)SCC)C1=C(C#N)C#N | 100 to 102
64 | N#CCCC1CCCCCCCCCCC1=O (stereo not drawn) | 60 to 61
65 | CC(C(=O)O)c1ccc(Cl)cc1 (stereo not drawn) | 57
66 | Oc1cc(Cl)cc(Cl)c1Cl | 62
67 | OCC(I)CC(F)(F)C(F)(F)C(F)(F)C(F)(F)C(F)(F)C(F)(F)F (stereo not drawn) | 45 to 46

More lines, now with the values ahead:

Row | melting point [°C] | SMILES
68 | 300 | Nc1nc(O)cc(O)n1
69 | 171 to 175 | c1ccc([C@@H]2COC(c3cccc(C4=N[C@H](c5ccccc5)CO4)n3)=N2)cc1
70 | 174 to 177 | CCOC(=O)C(C(N)=S)=C1NN=C(c2ccc(Cl)cc2)O1
71 | 131 to 132 | CC(=O)CCc1oc2ccc(NC(C)=O)cc2c1-c1ccc(C)o1
72 | -34 | Fc1ccccc1F
73 | 204 to 206 | O=C(O)C=Cc1ccc(Oc2ccccc2)nc1
74 | 49 to 52 | Oc1c(Cl)cc(F)cc1Cl
75 | 228 to 230 | O=C(Nc1ccc(Br)cc1Br)C(C(F)(F)F)(C(F)(F)F)C(F)(F)F
76 | 151 | OC[C@H]1OC(Nc2ccccc2)C[C@@H]1O (stereo partly drawn)
77 | 215 | Nc1ccc(C(=O)O)cc1N
78 | 239 to 240 | O=C1/C(=N\Nc2ccccc2)C(c2ccc([N+](=O)[O-])cc2)=NN1c1ccccc1
79 | 102 to 103 | CCOC(=O)Nc1cccc([N+](=O)[O-])c1[N+](=O)[O-]
80 | -129 | C=CCCCC=C
81 | 57 | Cc1cc([N+](=O)[O-])cnc1Br
82 | 183 | CC(C)(C)c1nnc(N)s1
83 | 157 | CC(=O)CCc1cc2c(cc1N=Nc1ccccc1C(=O)O)CCC(C)N2 (stereo not drawn)
84 | 185 | Cc1c(N/N=C2/C(=O)N(c3ccccc3)N=C2C(F)(F)F)c(=O)n(-c2ccccc2)n1C
85 | 163 | CC(=O)C=Cc1ccc(C=CC(C)=O)cc1
86 | 36 to 37 | FC(F)(F)c1ccc2nsnc2c1
87 | 298 | O=C(NN=Cc1ccc([N+](=O)[O-])o1)c1ccc(O)cc1
88 | 285 to 287 | Cc1cc(C)c(C#N)c(O)n1

Row | melting point [°C] | SMILES
89 | 205 | O=C1c2ccccc2-c2ccc(O)cc21
90 | 121 to 122 | CC(C)[C@H](NC(=O)OCC1c2ccccc2-c2ccccc21)C(=O)Oc1c(F)c(F)c(F)c(F)c1F
91 | 115 | COc1ccc(-c2csc(/C(C#N)=C\c3ccco3)n2)cc1
92 | -34 | BrCCCCCBr
93 | 60 to 63 | N#CCc1ccc(Cl)cc1Cl
94 | 192 to 193 | O=C(O)c1ccc(Cn2cccn2)cc1
95 | 218 to 219 | CC1=NN(c2ccccc2)C(=O)C1=C(Br)C1C(=O)N(c2ccccc2)N=C1C (stereo not drawn)
96 | 225 | Brc1ccc(-c2c(Br)c(Br)c(Br)c(Br)c2Br)c(Br)c1Br
97 | 206 | CC(=O)OCC(=O)C1(O)CCC2C3CC(C)C4=CC(=O)C=CC4(C)C3C(O)CC21C (stereo not drawn)
98 | 84 to 86 | O=C(O)CCOc1ccc(F)cc1
99 | 279 | CC(=O)n1c(C)cc2cc3c(cc21)=NC(C)C=3 (stereo not drawn)
100 | 172 | CC(CCC(=O)O)C1CCC2=C3CCC4CC(O)CCC4(C)C3CC(O)C21C (stereo not drawn)
101 | 132 | CCCC(=O)C=Cc1ccc(O)c(O)c1
102 | 148 | NC(=O)CC(O)C(=O)O (stereo not drawn)
103 | 54 | O=[N+]([O-])c1cccc(C2OCCO2)c1
104 | 142 | Cc1cc(=S)cc(C)o1
105 | 174 | O=C(c1ccccc1)c1cc(C(=O)c2ccccc2)c([N+](=O)[O-])cc1[N+](=O)[O-]
106 | 94 | CC1(O)Cc2cccc(Cl)c21 (stereo not drawn)
107 | 119 | COc1cc(C(=O)c2cccc(Br)c2)c([N+](=O)[O-])cc1OC
108 | 240 | Cn1c(/C(C#N)=C/c2cccc(O)c2)nc2ccccc21
109 | 176 to 177 | Cc1cc(O)cc(C)c1C#N

Row | melting point [°C] | SMILES
110 | 169 to 172 | Cc1cc(C(N)=S)no1
111 | 67 | COc1ccc(C#N)cc1OC
112 | 31.5 | CC(C)C(=O)C(=O)O
113 | 136 | Cc1ccc(N=C(CNc2ccc(C)cc2)Nc2ccc(C)cc2)cc1
114 | 40 | O=C(O)C1CC2CCC1C2 (stereo not drawn)
115 | 216 | COc1cc(C2Nn3c(nnc3-c3cccnc3)S2)ccc1O (stereo not drawn)
116 | 56 to 59 | CC(=O)c1c(-c2ccc(Cl)cc2)noc1C
117 | 106 to 107 | N#CCc1nc(-c2ccc(Cl)c(Cl)c2)cs1
118 | 200 | O=C(Nc1cccc([N+](=O)[O-])c1)C(C(F)(F)F)C(F)(F)F
119 | 157 to 159 | COc1ccc(C(=O)O)c(O)c1
120 | 270 | COc1cc(C=CC(=O)O)c([N+](=O)[O-])cc1OC
121 | 116 | Cc1cc(N)n(-c2ccccc2)n1
122 | 105 | CC(=O)N1CC(c2ccccc2)C=C1c1ccccc1 (stereo not drawn)
123 | 78 | O=C1CCC2(c3ccccc3)OCC(c3ccccc3)N12 (stereo not drawn)
124 | 141 | Cc1cc(N)c([N+](=O)[O-])cc1C
125 | 38 | Cc1nc(Br)ccc1Br
126 | 167 | COC1=CC(=O)C(C#N)C(c2ccccc2)C1 (stereo not drawn)
127 | 52 to 55 | CN(N)c1ccc(C(F)(F)F)cn1
128 | 177 | OC[C@H]1O[C@@H](Oc2ccccc2)[C@H](O)[C@@H](O)[C@@H]1O
